This passage reports DC50 results from US10519148B2, “Acrylic acid derivative, preparation method and use in medicine thereof” (Zhejiang Hisun Pharmaceutical Co., Ltd., priority 2015, dated 2019).

The experiment addresses T1, ERα (Homo sapiens, UniProt P03372).
T1 construct: host or cells: MCF-7
T1 sequence (P03372 1-595): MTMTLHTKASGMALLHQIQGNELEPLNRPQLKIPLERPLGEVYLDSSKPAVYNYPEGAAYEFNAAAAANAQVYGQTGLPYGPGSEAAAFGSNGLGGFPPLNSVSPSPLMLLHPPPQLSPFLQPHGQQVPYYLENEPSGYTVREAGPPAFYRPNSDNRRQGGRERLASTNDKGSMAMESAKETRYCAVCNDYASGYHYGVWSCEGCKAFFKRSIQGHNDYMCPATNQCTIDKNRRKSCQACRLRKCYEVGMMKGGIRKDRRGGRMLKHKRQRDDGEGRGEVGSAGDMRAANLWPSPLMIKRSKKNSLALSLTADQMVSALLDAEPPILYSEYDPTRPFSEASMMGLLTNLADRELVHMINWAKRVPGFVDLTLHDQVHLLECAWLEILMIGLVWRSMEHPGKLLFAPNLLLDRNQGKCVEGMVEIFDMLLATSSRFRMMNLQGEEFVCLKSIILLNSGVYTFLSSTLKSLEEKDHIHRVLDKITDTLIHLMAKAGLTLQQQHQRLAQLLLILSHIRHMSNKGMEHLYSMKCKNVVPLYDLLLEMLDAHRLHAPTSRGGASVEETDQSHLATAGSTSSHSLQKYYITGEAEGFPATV
The experiment is described as follows: ERα down-regulation immunofluorescence assay in MCF-7 cells. The experiment is classed as cell-based. Particulars: immunofluorescence of ERα level, read-out: IC50 (nM) ERα down-degradation. How it is done: The down-regulation of the preferred compounds of the present invention on the protein level of ERα is evaluated by immunofluorescence assay using human breast cancer cell line MCF-7. MCF-7 cells used in the experiment were revived directly from frozen cells (about 5×10^6). The MCF-7 frozen cell line (Sigma D5921) purchased from Sigma was stored in DMEM medium containing 2 mM […]. 5% (v/v) Charcoal/Dextran-treated bovine serum […] were added to the revived MCF-7 cells and the cell concentration was determined using Coulter Counter.
The cells used for the test were diluted to 3.75×10^4 cells/mL with culture medium and 40 μL/well of the above cell suspension was transferred to 384-well black transparent bottom plates and incubated overnight at 37° C., 5% CO2. 10 mM compound stock solutions were diluted to a series of test concentrations (10 mM, 0.1 mM, 1 μM, 0.01 μM etc.) and dispensed into cell plates. 20 μL of 11.1% (v/v) aqueous formaldehyde solution (phosphate buffered saline) was added to each of the different concentrations of the test compounds and MCF-7 cell culture solution (40 μL), and the final concentration of formaldehyde in the solution was 3.7% (v/v). Cells were fixed at room temperature for 20 minutes, washed twice with 250 μL of PBS/Proclin, and then 40 μL of PBS/Proclin was added and refrigerated at 4° C. The immunostaining of the protein was performed using the automated AutoElisa kit. The PBS/Proclin solution was aspirated from each plate well and then 40 μL of PBS containing 0.5% Tween 20 (v/v) was added for cell permeation. After one hour, the plate was washed with 250 μL of PBS/0.05% Tween 20/Proclin for three times, and 20 μL of ERα rabbit monoclonal antibody (Thermofisher) in PBS/Tween™ 20/3% (w/v) BSA solution (1:1000) was added. The plates were incubated overnight at 4° C., washed three times with 250 μL of PBS/Tween™ 20/Proclin, and then 20 μL of goat anti-rabbit IgG AlexaFluor 594 or goat anti-rabbit IgG AlexaFluor 488 antibody (containing Hoechst stain (1:5000) in PBS/Tween™ 20/3% (w/v) BSA solution was added, and the system was incubated at room temperature for one hour. After the plates were washed three times with 250 μL of PBS/0.05% (v/v) Tween™ 20/Proclin, 20 μL of PBS was added and the paltes were kept in dark place at 4° C. The level of estrogen receptor ERα in MCF-7 cells was calculated through Cellomics Arrayscan detection of fluorescence emission intensity at two emission wave bands at 594 nm (24-hour time point) and 488 nm (5-hour time point). The average fluorescence emission intensity of each cell is positively correlated with the ERα receptor level of the cell. The primitive fluorescence data was used to obtain the fitting curve by software such as Origin or Genedata. Half maximal inhibitory concentration IC50 was used to characterize the down-regulation of estrogen receptor ERα by the test compounds, which is the concentration of the test compound when the fluorescence emission intensity is reduced to 50% of the average maximum fluorescence intensity.

SMILES strings stand for the structures.

For the compound `C[C@@H]1Cc2c([nH]c3ccccc23)[C@@H](c2c(F)cc(/C=C/C(=O)O)cc2F)N1CC1(F)CC1` [Example 1, (E)-3-(3,5-difluoro-4-((1R,3R)-2-((1-fluorocyclopropyl)methyl)-3-methyl-2,3,4,9-tetrahydro-1H-pyrido[3,4-b]indol-1-yl)phenyl)acrylic acid], the DC50 lay in the range of 0.1 to 10 nM.
For `C[C@@H]1Cc2c([nH]c3cccc(F)c23)[C@@H](c2c(F)cc(/C=C/C(=O)O)cc2F)N1CC1(F)CC1` [Example 12, (E)-3-(3,5-difluoro-4-((1R,3R)-5-fluoro-2-((1-fluorocyclopropyl)methyl)-3-methyl-2,3,4,9-tetrahydro-1H-pyrido[3,4-b]indol-1-yl)phenyl)acrylic acid], the DC50 fell in the range of 0.1 to 10 nM.
